# Source: patent US6737383B1, “Herbicidal oxadiazolidines” (priority 1999, dated 2004)
# What was measured:
# morningglory = assay: Test B pre/postemergence morningglory; assay type: in vivo, Ipomoea hederacea
# Summary of the method: (§1)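 Test chemicals in a non-phytotoxic solvent mixture with surfactant were sprayed preemergence onto planted seeds and postemergence onto plants 2 to 18 cm tall (1- to 4-leaf stage). After twelve to sixteen days in a greenhouse, injury was visually rated against untreated controls from 0 (no effect) to 10 (complete control).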
# blackgrass = assay: Test B pre/postemergence blackgrass; assay type: in vivo, Alopecurus myosuroides
# Summary of the method: as §1
# cocklebur = assay: Test B pre/postemergence cocklebur; assay type: in vivo, Xanthium strumarium
# Summary of the method: as §1
# bamyardgrass = assay: Test B flood test barnyardgrass; assay type: in vivo, Echinochloa crus-galli
# Summary of the method: (§2)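 Read-out is a visual response score from 0 (no effect) to 10 (complete control), assigned by comparison with untreated controls. Treatment was applied at the 2-leaf stage, and plants stayed in the greenhouse for twelve to sixteen days before scoring.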
# purple nutsedge = assay: Test B pre/postemergence purple nutsedge; assay type: in vivo, Cyperus rotundus
# Summary of the method: as §1
# crabgrass = assay: Test B pre/postemergence crabgrass; assay type: in vivo, Digitaria sanguinalis
# Summary of the method: as §1
# wild oat = assay: Test B pre/postemergence wild oat; assay type: in vivo, Avena fatua
# Summary of the method: as §1
# rice = assay: Test B flood test rice; assay type: in vivo, Oryza sativa
# Summary of the method: as §2
# bedstraw = assay: Test B pre/postemergence bedstraw; assay type: in vivo, Galium aparine
# Summary of the method: as §1
# surinam grass = assay: Test B pre/postemergence surinam grass; assay type: in vivo, Brachiaria decumbens
# Summary of the method: as §1
# smallflower flatsedge = assay: Test B flood test smallflower flatsedge; assay type: in vivo, Cyperus difformis
# Summary of the method: as §2
# giant foxtail = assay: Test B pre/postemergence giant foxtail; assay type: in vivo, Setaria faberii
# Summary of the method: as §1
# wheat = assay: Test B pre/postemergence wheat; assay type: in vivo, Triticum aestivum
# Summary of the method: as §1
# soybean = assay: Test B pre/postemergence soybean; assay type: in vivo, Glycine max
# Summary of the method: as §1
# pigweed = assay: Test B pre/postemergence pigweed; assay type: in vivo, Amaranthus retroflexus
# Summary of the method: as §1
# velvetleaf = assay: Test B pre/postemergence velvetleaf; assay type: in vivo, Abutilon theophrasti
# Summary of the method: as §1
# [1] = Preemergence, Rate 62 g/ha, scale of 0 to 10 where 0 is no effect and 10 is complete control
# [2] = Preemergence, Rate 250 g/ha, scale of 0 to 10 where 0 is no effect and 10 is complete control
# [3] = Preemergence, Rate 500 g/ha, scale of 0 to 10 where 0 is no effect and 10 is complete control
# [4] = Rate 125 g/ha, Postemergence, scale of 0 to 10 where 0 is no effect and 10 is complete control
# [5] = Rate 125 g/ha, Preemergence, scale of 0 to 10 where 0 is no effect and 10 is complete control
# [6] = Rate 250 g/ha, Postemergence, scale of 0 to 10 where 0 is no effect and 10 is complete control
# [7] = Rate 500 g/ha, Postemergence, scale 0 to 10, 0 no effect, 10 complete control
# [8] = Rate 62 g/ha, Postemergence, scale of 0 to 10 where 0 is no effect and 10 is complete control
# [9] = Rate 62 g/ha, headed Pre-emergence (flood test species), scale 0 to 10 (0 no effect, 10 complete control)
# [10] = Rate 125 g/ha, Pre-emergence, flood test species, scale 0 to 10 where 0 is no effect and 10 is complete control
# [11] = Rate 250 g/ha, Pre-emergence, flood-test species, scale 0 to 10, 0 is no effect, 10 is complete control
# [12] = Rate 500 g/ha, Pre-emergence, flood test species, scale 0 to 10 (0 no effect, 10 complete control)
structure (smiles),measurement,setting,value
CC(C)N(C(=O)n1oc(=O)n(CC(C)(C)C)c1=O)c1ccccc1 [Compound 276],Morningglory plant response rating,morningglory; [1],0
same,Morningglory plant response rating,morningglory; [2],0
same,"Plant response rating, Morningglory",morningglory; [3],0
same,Morningglory plant response rating,morningglory; [4],6
same,Morningglory plant response rating,morningglory; [5],0
same,"Plant response rating, Morningglory",morningglory; [6],6
same,Morningglory plant response rating,morningglory; [7],8
same,Blackgrass plant response rating,blackgrass; [2],10
same,"Plant response rating, Blackgrass",blackgrass; [3],10
same,Blackgrass plant response rating,blackgrass; [8],0
same,Blackgrass plant response rating,blackgrass; [4],1
same,Blackgrass plant response rating,blackgrass; [5],6
same,"Plant response rating, Blackgrass",blackgrass; [6],4
same,Blackgrass plant response rating,blackgrass; [7],8
same,Cocklebur plant response rating,cocklebur; [1],0
same,Cocklebur plant response rating,cocklebur; [2],0
same,"Plant response rating, Cocklebur",cocklebur; [3],0
same,Cocklebur plant response rating,cocklebur; [8],0
same,Cocklebur plant response rating,cocklebur; [4],0
same,Cocklebur plant response rating,cocklebur; [5],0
same,"Plant response rating, Cocklebur",cocklebur; [6],0
same,Cocklebur plant response rating,cocklebur; [7],0
same,Barnyardgrass plant response rating,bamyardgrass; [9],1
same,Barnyardgrass plant response rating,bamyardgrass; [10],6
same,Barnyardgrass plant response rating,bamyardgrass; [11],8
same,Barnyardgrass plant response rating,bamyardgrass; [12],8
same,Nutsedge plant response rating,purple nutsedge; [1],0
same,Nutsedge plant response rating,purple nutsedge; [4],0
same,Nutsedge plant response rating,purple nutsedge; [5],0
same,"Plant response rating, Nutsedge",purple nutsedge; [6],0
same,Nutsedge plant response rating,purple nutsedge; [7],0
same,Crabgrass plant response rating,crabgrass; [1],3
same,Crabgrass plant response rating,crabgrass; [2],6
same,"Plant response rating, Crabgrass",crabgrass; [3],7
same,Crabgrass plant response rating,crabgrass; [4],0
same,Crabgrass plant response rating,crabgrass; [5],4
same,"Plant response rating, Crabgrass",crabgrass; [6],6
same,Crabgrass plant response rating,crabgrass; [7],7
same,Wild oats plant response rating,wild oat; [1],0
same,Wild oats plant response rating,wild oat; [2],4
same,"Plant response rating, Wild oats",wild oat; [3],6
same,Wild oats plant response rating,wild oat; [4],0
same,"Plant response rating, Wild oats",wild oat; [6],0
same,Wild oats plant response rating,wild oat; [7],0
same,Rice plant response rating,rice; [9],0
same,Rice plant response rating,rice; [10],0
same,Rice plant response rating,rice; [11],0
same,Rice plant response rating,rice; [12],0
same,Bedstraw plant response rating,bedstraw; [1],0
same,Bedstraw plant response rating,bedstraw; [2],0
same,"Plant response rating, Bedstraw",bedstraw; [3],0
same,Bedstraw plant response rating,bedstraw; [8],0
same,Bedstraw plant response rating,bedstraw; [4],0
same,Bedstraw plant response rating,bedstraw; [5],0
same,"Plant response rating, Bedstraw",bedstraw; [6],3
same,Bedstraw plant response rating,bedstraw; [7],3
same,B. signalgrass plant response rating,surinam grass; [1],4
same,B. signalgrass plant response rating,surinam grass; [2],10
same,"Plant response rating, B. signalgrass",surinam grass; [3],10
same,B. signalgrass plant response rating,surinam grass; [8],0
same,B. signalgrass plant response rating,surinam grass; [4],0
same,B. signalgrass plant response rating,surinam grass; [5],7
same,"Plant response rating, B. signalgrass",surinam grass; [6],0
same,B. signalgrass plant response rating,surinam grass; [7],0
same,S. Flatsedge plant response rating,smallflower flatsedge; [9],0
same,S. Flatsedge plant response rating,smallflower flatsedge; [10],0
same,S. Flatsedge plant response rating,smallflower flatsedge; [11],0
same,S. Flatsedge plant response rating,smallflower flatsedge; [12],0
same,Giant foxtail plant response rating,giant foxtail; [1],9
same,Giant foxtail plant response rating,giant foxtail; [2],10
same,"Plant response rating, Giant foxtail",giant foxtail; [3],10
same,Giant foxtail plant response rating,giant foxtail; [4],1
same,Giant foxtail plant response rating,giant foxtail; [5],10
same,"Plant response rating, Giant foxtail",giant foxtail; [6],4
same,Giant foxtail plant response rating,giant foxtail; [7],6
same,Wheat plant response rating,wheat; [1],0
same,Wheat plant response rating,wheat; [2],0
same,"Plant response rating, Wheat",wheat; [3],3
same,Wheat plant response rating,wheat; [4],0
same,Wheat plant response rating,wheat; [5],0
same,"Plant response rating, Wheat",wheat; [6],0
same,Wheat plant response rating,wheat; [7],0
same,Soybean plant response rating,soybean; [1],0
same,Soybean plant response rating,soybean; [2],0
same,"Plant response rating, Soybean",soybean; [3],0
same,Soybean plant response rating,soybean; [4],5
same,Soybean plant response rating,soybean; [5],0
same,"Plant response rating, Soybean",soybean; [6],6
same,Soybean plant response rating,soybean; [7],7
same,Redroot pigweed plant response rating,pigweed; [1],0
same,Redroot pigweed plant response rating,pigweed; [2],2
same,"Plant response rating, Redroot pigweed",pigweed; [3],4
same,Redroot pigweed plant response rating,pigweed; [4],0
same,Redroot pigweed plant response rating,pigweed; [5],0
same,"Plant response rating, Redroot pigweed",pigweed; [6],1
same,Redroot pigweed plant response rating,pigweed; [7],2
same,Velvetleaf plant response rating,velvetleaf; [1],0
same,Velvetleaf plant response rating,velvetleaf; [2],0
same,"Plant response rating, Velvetleaf",velvetleaf; [3],3
same,Velvetleaf plant response rating,velvetleaf; [4],0
same,Velvetleaf plant response rating,velvetleaf; [5],0
same,"Plant response rating, Velvetleaf",velvetleaf; [6],0
same,Velvetleaf plant response rating,velvetleaf; [7],0
